Test results reported in patent US11446354B2, “Method of treatment” (Hexima Limited, priority 2014, dated 2022).
Like-named read-outs stand apart in the source and are kept apart here.

Experiments:
[1] = format: in vitro ADME, Human; conditions: for Cumulative amount through nail as percent (of applied dose): human
Protocol: Penetration of NaD1 through human nails was measured according to the method of Hui et al. (2002) J Pharm Sci 91(1):189-195. Human toenails were obtained from ScienceCare (USA) and washed with phosphate buffered saline (details, PBS) before being placed on a kimwipe that had been soaked in PBS for 3 h to rehydrate the nail. The nail was then placed in a plastic nail adapter with a dosing area of 0.5×0.5 cm (Permagear, USA) and a cotton bud wetted with 75 microlitres of PBS was placed in the receptor chamber in contact with the underside of the nail.
The cotton bud in contact with the underside of the nail was removed after 24 h and every 24 h following. Protein that had passed through the nail was recovered from the cotton bud by washing twice with 500 μL of 0.1% v/v trifluoroacetic acid. Recovered protein was quantified using RP-HPLC.

[2] = test system: Trichophyton rubrum, T. interdigitale, Microsporum fulvum and C. albicans; test: Inhibition assays summarised across the range of fungal pathogens; format: cell-based; conditions: summary of Table 3
Protocol: (§1) The inhibitory effects of the plant defensins on the growth of Trichophyton rubrum, T. interdigitale, Microsporum fulvum and C. albicans (obtained from the National Mycology Reference Centre, South Australia Pathology at the Women's and Children's Hospital, Adelaide, Australia) are measured essentially as described by Broekaert et al. (1990) FEMS Microbiol Lett 69:55-59. Spores of T. rubrum, T. interdigitale and M. fulvum are isolated from sporulating fungus growing on 1⁄2 strength Sabouraud dextrose agar (SDA). Spores were removed from the plates by the addition of 1⁄2 strength potato dextrose broth (PDB). C. albicans cells are grown in Yeast Peptone Broth (YPD) for 16 h. Spore and cell concentrations are measured using a hemocytometer. Antifungal assays are conducted in 96 well microtitre plates essentially as herein described. Wells are loaded with 20 μL of filter sterilized (0.22 μm syringe filter, Millipore) defensin (10× stock for each final concentration) or water and 80 μL of 5×10^4 spores/mL (T. rubrum, T, interdigitale, M. fulvum) or 5,000 cells/mL (C. albicans) in 1⁄2 strength PDB. The plates are incubated at 30° C. Fungal growth is assayed by measuring optical density at 595 nm ([…]) using a microtitre plate reader (SpectraMax Pro M2; Molecular Devices. Growth is allowed to proceed until the optical density (OD) of the fungus in the absence of any test defensin reached an OD of 0.2. Each test is performed in duplicate.

[3] = test system: Human monocytic lymphoma (U937) cells; format: cell-based
Protocol: Human monocytic lymphoma (U937) cells are cultured in RPMI-1640 medium. All culture media are supplemented with 5-10% v/v fetal calf serum, 100 U/ml of penicillin, and 100 μg/ml of streptomycin. Cell lines are cultured at 37° C. in a humidified atmosphere containing 5% v/v CO2. Adherent cell lines are detached from the flask by adding a mixture containing 0.25% v/v trypsin and […]. A flow cytometry-based propidium iodide (PI) uptake assay is performed to analyze the ability of plant defensins to permeabilize U937 cells (essentially as described in Poon et al, 2014). Briefly, cells are suspended to 1×10^6 cells/ml in 0.1% v/v BSA/RPMI-1640 and incubated with plant defensins (10 μM) at 37° C. for 30 min. Samples are added to PBS containing a final concentration of 1 μg/ml PI and placed on ice. Samples are then analyzed immediately using the BD FACSCanto II Flow Cytometer and BD FACSDiva software v6.1.1. The resultant flow cytometry data is analyzed using FlowJo software v8.8.6. Cells are gated appropriately based on forward scatter and side scatter and cell permeabilization is defined by PI-positive staining.

Microsporum fulvum = test: Antifungal growth inhibition assay, Microsporum fulvum; format: cell-based; conditions: summary of Table 3
Protocol: as §1, with “Wells are loaded with 20 μL of filter sterilized (0.22 μm syringe filter, Millipore) defensin (10× stock for each final concentration) or water and 80 μL of 5×10^4 spores/mL (T. rubrum, T, interdigitale, M. fulvum) or 5,000 cells/mL (C. albicans) in 1⁄2 strength PDB. The plates are incubated at 30° C.” left out

C. albicans = test: Antifungal growth inhibition assay, C. albicans; format: cell-based, Candida albicans; conditions: summary of Table 3
Protocol: as §1, with “Wells are loaded with 20 μL of filter sterilized (0.22 μm syringe filter, Millipore) defensin (10× stock for each final concentration) or water and 80 μL of 5×10^4 spores/mL (T. rubrum, T, interdigitale, M. fulvum) or 5,000 cells/mL (C. albicans) in 1⁄2 strength PDB. The plates are incubated at 30° C.” left out

Escherichia coli = test: Inhibition of the growth of Escherichia coli; format: cell-based; conditions: 0.1625-10 μM, 18 hours, 37° C.
Protocol: A single E. coli colony was used to inoculate 5 ml of Luria-Bertani media and grown overnight at 37° C. The following day, the optical density of the culture was measured and the E. coli diluted to an optical density at 600 nm (OD600) of 0.01 in Mueller-Hinton Broth. Diluted E. coli were added to 96-well plates with defensins at concentrations of 10 μM, 5 μM, 2.5 μM, 1.25 μM, 0.625 μM, 0.3125 μM or 0.1625 μM. Plates were read at OD595 to obtain time zero data points. Plates were incubated at 37° C. for 18 hours before reading again at OD595 to assess the amount of E. coli growth.

## Cc1cc(C2CCCCC2)n(O)c(=O)c1 [Ciclopirox]
[1]; 3 day, 10 %
  Cumulative amount through nail as percent (of applied dose): 0.03%
[1]; 6 day, 10 %
  Cumulative amount through nail as percent (of applied dose): 0.03%
[1]; 9 day, 10 %
  Cumulative amount through nail as percent (of applied dose): 0.04%
[1]; 12 day, 10 % solution
  Cumulative amount through nail as percent (of applied dose): 0.05%
[1]; 15 day, 10 % solution
  Cumulative amount through nail as percent (of applied dose): 0.06%

## C=C1CCN([C@H](C)[C@](O)(Cn2cncn2)c2ccc(F)cc2F)CC1 [Efinaconazole]
[1]; 1 day, 10 % solution
  Cumulative amount through nail as percent (of applied dose): 0.2%
[1]; 2 day, 10 % solution
  Cumulative amount through nail as percent (of applied dose): 0.4%
[1]; 3 day, 10 %
  Cumulative amount through nail as percent (of applied dose): 0.7%
[1]; 4 day, 10 % solution
  Cumulative amount through nail as percent (of applied dose): 0.8%
[1]; 6 day, 10 %
  Cumulative amount through nail as percent (of applied dose): 1.3%
[1]; 9 day, 10 %
  Cumulative amount through nail as percent (of applied dose): 2.0%
[1]; 12 day, 10 % solution
  Cumulative amount through nail as percent (of applied dose): 2.7%
[1]; 15 day, 10 % solution
  Cumulative amount through nail as percent (of applied dose): 3.3%

## OB1OCc2cc(F)ccc21 [Tavaborole]
[1]; 3 day, 10 %
  Cumulative amount through nail as percent (of applied dose): 2.0%
[1]; 6 day, 10 %
  Cumulative amount through nail as percent (of applied dose): 3.7%
[1]; 9 day, 10 %
  Cumulative amount through nail as percent (of applied dose): 6.8%
[1]; 12 day, 10 % solution
  Cumulative amount through nail as percent (of applied dose): 10.7%
[1]; 15 day, 10 % solution
  Cumulative amount through nail as percent (of applied dose): 14.9%

## HXL001: Class I plant defensin from Zea mays, SEQ ID NO: 4 (RHCLSQSHRFKGLCMSSNNCANVCQTENFPGGECKAEGATRKCFCKKIC; HXL001 Zea mays)
[2]
  Antifungal activity across the range of fungal pathogens, result in words: did not display any activity at the concentrations tested
[3]
  U937 cells permeabilized (PI-positive): less than 2%

## HXL002: Class I plant defensin from Triticum aestivum, SEQ ID NO: 5 (RDCLSQSHKFKGACLSSSNCAAVCRTENFPDGECHTHNFARKCFCKRAC; HXL002 Triticum aestivum)
Microsporum fulvum
  Inhibition of M. fulvum, result in words: very poor inhibitors
C. albicans
  Inhibition of C. albicans, result in words: very poor inhibitors
[3]
  U937 cells permeabilized (PI-positive): less than 2%

## HXL004: Class I plant defensin from Nicotiana benthamiana, SEQ ID NO: 7 (RTCESQSHRFKGLCFSRSNCASVCHTEGFNGGHCRGFRRRCFCTRHC; HXL004 Nicotiana benthamiana)
[2]
  Antifungal activity across the range of fungal pathogens, result in words: intermediate activity across the range of pathogens
[1]
  Nail penetration, result in words: able to penetrate nails faster and more effectively than the active ingredients of current topical onychomycosis therapies
Escherichia coli
  Growth of E. coli in the presence of defensin: inhibited the growth of E. coli in a concentration dependent manner
[3]
  U937 cells permeabilized (PI-positive): 13%

## HXL005: Class I plant defensin from Taraxcum kok-saghyz, SEQ ID NO: 8 (KMCQTTSHAFSCVNDSGCSGSCEKQGFASGKCDGVRRRCTCYKKC; HXL005 Taraxcum kok-saghyz)
[2]
  Antifungal activity across the range of fungal pathogens, result in words: most effective plant defensins across the range of fungal pathogens
[3]
  U937 cells permeabilized (PI-positive): ~25%

## HXL009: Class I plant defensin from Zea mays, SEQ ID NO: 9 (TVCMRHNNFYHGPCMSNKDCANSCVQHNLGVGGYCRGKIPFNKECMCTFEC; HXL009 Zea mays)
[2]
  Antifungal activity across the range of fungal pathogens, result in words: did not display any activity at the concentrations tested
[3]
  U937 cells permeabilized (PI-positive): less than 2%

## HXL012: Class I plant defensin from Amaranthus retroflexus, SEQ ID NO: 10 (RMCKAPSKLFRGMCGIRDSNCDSVCRAEGMAAGDCHGLRRRCICSRPC; HXL012 Amaranthus retroflexus)
[2]
  Antifungal activity across the range of fungal pathogens, result in words: intermediate activity across the range of pathogens
[1]
  Nail penetration, result in words: did not penetrate the nail
[3]
  U937 cells permeabilized (PI-positive): less than 2%

## HXL013: Class I plant defensin from Glycine max, SEQ ID NO: 11 (KDCLTRRHGFQGRCLFDRQCAHVCRSDGFIGGQCRGPLRKCFCSRPC; HXL013 Glycine max)
[2]
  Antifungal activity across the range of fungal pathogens, result in words: intermediate activity across the range of pathogens
[3]
  U937 cells permeabilized (PI-positive): 5%

## HXL015: Class I plant defensin from Oryza sativa, SEQ ID NO: 12 (RHCLSQSHRFKGMCVSSNNCANVCRTESFPDGECKSHGLERKCFCKKVC; HXL015 Oryza sativa)
[2]
  Antifungal activity across the range of fungal pathogens, result in words: intermediate activity across the range of pathogens

## HXL035: Class I plant defensin from Picramnia pentandra, SEQ ID NO: 2 (KVCTKPSKFFKGLCGFDRDCTVACKKEGLASGFCQNKGFFNVVCVCRKPC; HXL035 Picramnia pentandra)
[2]
  Antifungal activity across the range of fungal pathogens, result in words: most effective plant defensins across the range of fungal pathogens

## HXP4: Artificial defensin variant, Loop1B of a Class I defensin replaces that of the Solanaceous Class II defensin, SEQ ID NO: 21 (RECKTESHRFKGPCITKPPCRKACISEKFTDGHCSKILRRCLCTKPC; HXP4)
[3]
  U937 cells permeabilized (PI-positive): 13%

## LL37: human antimicrobial peptide LL37 used as a control (LLGDFFRKSKEKIGKEFKRIVQRIKDFLRNLVPRTES; Antibacterial peptide LL-37; UniProt P49913 134-170, looked up) [reference compound]
Escherichia coli
  Growth of E. coli in the presence of defensin: inhibited the growth of E. coli in a concentration dependent manner

## NaD1: Solanaceous Class II plant defensin from Nicotiana alata, SEQ ID NO: 18 (RECKTESNTFPGICITKPPCRKACISEKFTDGHCSKILRRCLCTKPC; NaD1 Nicotiana alata) [reference compound]
[1]
  Nail penetration, result in words: able to penetrate nails faster and more effectively than the active ingredients of current topical onychomycosis therapies
Escherichia coli
  Growth of E. coli in the presence of defensin: did not inhibit growth of E. coli at the concentrations tested
[3]
  U937 cells permeabilized (PI-positive): 33%
